A short description of series [1]: Optical stability under continuous 785 nm laser irradiation. The format is physicochemical. The settings on record: 30 minutes. How it is done:
A slide glass on which the nanoparticle of Example 4 was spin coated thereon was prepared. A region of the slide glass was selected, and was continuously irradiated by 785 nm laser for 30 minutes.
FIGS. 14A to 14D are a single particle fluorescence images showing the optical stability of an up-conversion nanoparticle coated with indocyanine green.

Series [2] in a line: Surface charge (zeta potential) by particle size surface charge analyzer. The format is physicochemical. To be noted: aqueous phase. How it is done:
The surface charge of the nanoparticle of Example 2 was measured using a particle size surface charge analyzer (Zetasizer Nano-ZS, […]). In addition, the surface charge of a pure indocyanine green solution was measured using the particle size surface charge analyzer.

On to `CC1(C)C(/C=C/C=C/C=C/C=C2\N(CCCCS(=O)(=O)O)c3ccc4ccccc4c3C2(C)C)=[N+](CCCCS(=O)(=O)[O-])c2ccc3ccccc3c21` [indocyanine green], for which, in series [1], the “fluorescence signal of indocyanine green after laser irradiation (optical stability)” value is “relatively much reduced or disappeared after 30 minutes”. The compound also had a surface charge in series [2] of −25.1 mV.

Source of the values: US20180177899A1, “HYDROPHILIC PARTICLES, METHOD FOR PRODUCING THE SAME, AND CONTRAST AGENT UTILIZING SAME” (Korea Basic Science Institute, priority 2015, published 2018).
